Counter-ions that a name gives are not always drawn.

Common to all, as to format: cell-based
The test system of one test is HTT CJ mRNA. The test is described as follows: Gene panel canonical junction qPCR assay, HTT. The note with it: protocol of Example 42, read-out: HTT IC50 (decrease in CJ mRNA levels). Here is the method:
(§1) Compounds described herein were used to modulate RNA transcript abundance in cells. The expression of a target mRNA was measured by detecting the formation of an exon-exon junction in the canonical transcript (CJ). A compound mediated exon-inclusion event was detected by observing an increase in formation of a new junction with an alternative exon (AJ). Real-time qPCR assays were used to detect these splicing switches and interrogate the potency of various compounds towards different target genes. A high-throughput real time quantitative PCR (RT-qPCR) assay was developed to measure these two isoforms of the mRNA (CJ and AJ) for an exemplary gene, HTT, together with a control housekeeping gene, GAPDH or GUSB or PPIA, used for normalization. Briefly, the A673 or K562 cell line was treated with various compounds described herein (e.g., compounds of Formula (I)). After treatment, the levels of the HTT mRNA targets were determined from each sample of cell lysate by cDNA synthesis followed by qPCR.
(§2) The A673 cell line was cultured in DMEM with 10% FBS. Cells were diluted with full growth media and plated in a 96-well plate (15,000 cells in 100 ul media per well). The plate was incubated at 37° C. with 5% CO2 for 24 hours to allow cells to adhere. An 11-point 3-fold serial dilution of the compounds was made in DMSO then diluted in media in an intermediate plate. Compounds were transferred from the intermediate plate to the cell plate with the top dose at a final concentration of 10 uM in the well. Final DMSO concentration was kept at or below 0.25%. The cell plate was returned to the incubator at 37° C. with 5% CO2 for an additional 24 hours.
(§3) The K562 cell line was cultured in IMDM with 10% FBS. For K562, cells were diluted with full growth media and plated in either a 96-well plate (50,000 cells in 50 uL media per well) or a 384-well plate (8,000-40,000 cells in 45 uL media per well). An 11-point 3-fold serial dilution of the compounds were made in DMSO then diluted in media in an intermediate plate. Compound was transferred from the intermediate plate to the cell plate with the top dose at a final concentration of 10 uM in the well. Final DMSO concentration was kept at or below 0.25%. Final volume was 100 uL for 96-well plate and 50 uL for 384-well plate. The cell plate was then placed in an incubator at 37° C. with 5% CO2 for 24 hours.
(§4) The data analysis was performed by first determining the ACt vs the housekeeper gene. This ACt was then normalized against the DMSO control (AACt) and converted to RQ (relative quantification) using the 2^(−ΔΔCt) equation. The RQ were then converted to a percentage response by arbitrarily setting an assay window of 3.5 ΔCt for HTT-CJ and an assay window of 9 ΔCt for HTT-AJ. […] The percentage response was then fitted to the 4 parametric logistic equation to evaluate the concentration dependence of compound treatment. The increase in AJ mRNA is reported as AC50 (compound concentration having 50% response in AJ increase) while the decrease in CJ mRNA levels is reported as IC50 (compound concentration having 50% response in CJ decrease).
(§5) Additional studies were carried out for a larger panel of genes using the protocol provided above. The junction between flanking upstream and downstream exons was used to design canonical junction qPCR assays. At least one of the forward primer, reverse primer or the CY5-labeled 5′ nuclease probe (with 3′ quencher such as ZEN/Iowa Black FQ) was designed to overlap with the exon junction to capture the CJ mRNA transcript. BLAST was used to confirm the specificity of the probeset and parameters such as melting temperature, GC content, amplicon size, and primer dimer formation are considered during their design. Data for the decrease in CJ mRNA levels for three exemplary genes (HTT, SMN2, and Target C) analyzed in this panel are reported as IC50 (compound concentration having 50% response in CJ decrease).

Test [1] has as its system HTT mRNA canonical junction (CJ). The test can be described thus: Splicing RT-qPCR assay, decrease of HTT canonical junction (CJ) mRNA. The note with it: A673 or K562 cells, 24 hours compound treatment, concentration having 50% response in CJ decrease. How it is done:
as §1, §2, §3
(§6) The cells were then gently washed with 50 uL-100 uL cold PBS before proceeding to addition of lysis buffer. 30 uL-50 uL of room temperature lysis buffer with DNAse I (and optionally RNAsin) was added to each well. Cells were shaken/mixed thoroughly at room temperature for 5-10 minutes for lysis to take place and then 3 uL-5 uL of room temperature stop solution was added and wells were shaken/mixed again. After 2-5 minutes, the cell lysate plate was transferred to ice for RT-qPCR reaction setup. The lysates could also be frozen at −80° C. for later use.
(§7) In some cases, a direct lysis buffer was used. An appropriate volume of 3× lysis buffer (10 mM Tris, 150 mM NaCl, 1.5%-2.5% Igepal and 0.1-1 U/uL RNAsin, pH 7.4) was directly added to either K562 or A673 cells in media and mixed by pipetting 3 times. The plates were then incubated at room temperature with shaking/rocking for 20-50 minutes to allow for lysis to take place. After this time, the cell lysate plate was transferred to ice to set up for the RT-qPCR reactions. The lysates could also be frozen at −80° C. for later use.
(§8) To set up 10 uL RT-qPCR reactions, cell lysates were transferred to 384-well qPCR plates containing the master mix according to the table below. The plates were sealed, gently vortexed, and spun down before the run. The volumes were adjusted accordingly in some instances where the reaction was carried in 20 uL. The table below summarizes the components of the RT-qPCR reactions:
(§9) The RT-qPCR reaction was performed using a QuantStudio (ThermoFisher) under the following fast cycling conditions. […]
A general note: In qPCR the cycle at which signal appears reflects the starting amount.

The subject of test [2] is HTT mRNA alternative junction (AJ). The test can be described thus: Splicing RT-qPCR assay, increase of HTT alternative junction (AJ) mRNA. Conditions: A673 or K562 cells, 24 hours compound treatment, concentration having 50% response in AJ increase. Here is the method:
as §1, §2, §3, §6, §7, §8, §9

The test system of the next test is Target C CJ mRNA. The test is described as follows: Gene panel canonical junction qPCR assay, Target C. Conditions: protocol of Example 42, read-out: Target C IC50 (decrease in CJ mRNA levels). Here is the method: as §1, §2, §3, §4, §5
A further test deals with SMN2 CJ mRNA. The test can be described thus: Gene panel canonical junction qPCR assay, SMN2. The note with it: protocol of Example 42, read-out: SMN2 IC50 (decrease in CJ mRNA levels). How it is done:
as §1, §2, §3, §4, §5

As to `Cc1cn2nc(NC(=O)c3ccc(C4CCNCC4)c4cc(C)oc34)cc(C)c2n1` [Compound 118, N-[2,8-dimethylimidazo[1,2-b]pyridazin-6-yl]-2-methyl-4-(piperidin-4-yl)-1-benzofuran-7-carboxamide], the 50% inhibitory concentration (IC50) with HTT CJ mRNA was 1000 to 10000 nM; in the test on Target C CJ mRNA, > 10000 nM. The half-maximal activity concentration (AC50) in test [1] and in test [2] was 1000 to 10000 nM each time.

On to `Cc1cn2nc(NC(=O)c3ccc(C4CCNCC4)c4ccoc34)cc(C)c2n1` [Compound 119, N-[2,8-dimethylimidazo[1,2-b]pyridazin-6-yl]-4-(piperidin-4-yl)-1-benzofuran-7-carboxamide], for which the IC50 was 100 to 1000 nM in the test with SMN2 CJ mRNA, 1000 to 10000 nM in the test with HTT CJ mRNA and > 10000 nM in the test with Target C CJ mRNA. Further, the AC50 in test [1] is 1000 to 10000 nM; in test [2] it was > 10000 nM.

As to `Cc1cn2cc(NC(=O)c3ccc(N4CCNCC4)c4nc(C)oc34)cc(F)c2n1` [Compound 140], the half-inhibitory concentration (IC50) lay within 100 to 1000 nM in the test with SMN2 CJ mRNA and 1000 to 10000 nM with HTT CJ mRNA. The AC50 in test [1] and in test [2] was 1000 to 10000 nM each time.

As for `Cc1cn2cc(NC(=O)c3ccc(N4CCNCC4)c4oc(C)nc34)cc(F)c2n1` [Compound 141, N-[8-fluoro-2-methylimidazo[1,2-a]pyridin-6-yl]-2-methyl-7-(piperazin-1-yl)-1,3-benzoxazole-4-carboxamide hydrochloride], the values for the IC50 with SMN2 CJ mRNA, in the test on HTT CJ mRNA and in the test with Target C CJ mRNA were < 100 nM, < 100 nM and 100 to 1000 nM, respectively. The half-maximal activity concentration (AC50) in test [1] and in test [2] was < 100 nM in each case.

Take `Cc1cn2cc(NC(=O)c3ccc(N4CCNCC4)c4cc(C)oc34)cc(F)c2n1` [Compound 142, N-[8-fluoro-2-methylimidazo[1,2-a]pyridin-6-yl]-2-methyl-4-(piperazin-1-yl)-1-benzofuran-7-carboxamide]: the concentration for half-maximal inhibition (IC50) in the test with SMN2 CJ mRNA was < 100 nM; with HTT CJ mRNA it was 1000 to 10000 nM; in the test with Target C CJ mRNA it was 100 to 1000 nM. In addition, the half-maximal activity concentration (AC50) in test [1] and in test [2] was 1000 to 10000 nM throughout.

On to `Cc1cn2cc(NC(=O)c3ccc(N4CCNCC4)c4cn(C)nc34)cc(F)c2n1` [Compound 143, N-[8-fluoro-2-methylimidazo[1,2-a]pyridin-6-yl]-2-methyl-4-(piperazin-1-yl) indazole-7-carboxamide], for which the figures for the IC50 in the test on SMN2 CJ mRNA, in the test on HTT CJ mRNA and in the test with Target C CJ mRNA were < 100 nM, 100 to 1000 nM and < 100 nM, respectively. For the same compound, the AC50 in test [1] and in test [2] was 100 to 1000 nM each time.

As to `Cc1cn2cc(NC(=O)c3ccc(C4CCNCC4)c4cc(C)oc34)cc(F)c2n1` [Compound 145, N-[8-fluoro-2-methylimidazo[1,2-a]pyridin-6-yl]-2-methyl-4-(piperidin-4-yl)-1-benzofuran-7-carboxamide], the half-inhibitory concentration (IC50) with SMN2 CJ mRNA was < 100 nM; in the test on HTT CJ mRNA, 1000 to 10000 nM; in the test with Target C CJ mRNA it was 100 to 1000 nM. Also, the half-maximal activity concentration (AC50) in test [1] and in test [2] was 1000 to 10000 nM in each case.

`Cc1cn2nc(NC(=O)c3ccc(N4CCNCC4)c4cc(C)oc34)cc(C)c2n1` [Compound 148, N-[2,8-dimethylimidazo[1,2-b]pyridazin-6-yl]-2-methyl-4-(piperazin-1-yl)-1-benzofuran-7-carboxamide]: the half-inhibitory concentration (IC50) in the test with SMN2 CJ mRNA lay within 100 to 1000 nM; with HTT CJ mRNA, 1000 to 10000 nM; with Target C CJ mRNA, 1000 to 10000 nM. The concentration at half-maximal activity (AC50) in test [1] and in test [2] was 1000 to 10000 nM each time.

For the compound `Cc1cn2cc(NC(=O)c3ccc(C4CCNCC4)c4ccoc34)cc(F)c2n1` [Compound 149, N-[8-fluoro-2-methylimidazo[1,2-a]pyridin-6-yl]-4-(piperidin-4-yl)-1-benzofuran-7-carboxamide hydrochloride], the concentration for half-maximal inhibition (IC50) with SMN2 CJ mRNA was < 100 nM; in the test with HTT CJ mRNA it was 1000 to 10000 nM; in the test with Target C CJ mRNA, > 10000 nM. The AC50 in test [1] and in test [2] was 1000 to 10000 nM in each case.

`CCC1CN(c2ccc(C(=O)Nc3cc(F)c4nc(C)cn4c3)c3oc(C)cc23)CCN1` (centres unmarked) [Compound 192]: the IC50 in the test with SMN2 CJ mRNA was < 100 nM; in the test with HTT CJ mRNA, 1000 to 10000 nM; with Target C CJ mRNA, 1000 to 10000 nM.

For `Cc1cn2cc(NC(=O)c3ccc(N4CC(C)(C)NC(C)(C)C4)c4cc(C)oc34)cc(F)c2n1` [Compound 195], the values for the half-inhibitory concentration (IC50) in the test with SMN2 CJ mRNA, in the test with HTT CJ mRNA and in the test on Target C CJ mRNA were < 100 nM, > 10000 nM and > 10000 nM, respectively.

Turning to `Cc1cn2nc(-c3ccc(C(=O)NC4CCNCC4)c4oc(C)cc34)cc(C)c2n1` [Compound 282, 4-{2,8-dimethylimidazo[1,2-b]pyridazin-6-yl}-2-methyl-N-(piperidin-4-yl)-1-benzofuran-7-carboxamide], the concentration at half-maximal activity (AC50) in test [1] and in test [2] was 1000 to 10000 nM each time.

On to `Cc1cn2cc(-c3ccc(C(=O)NC4CCNCC4)c4oc(C)cc34)cc(F)c2n1` [Compound 283, 4-{8-fluoro-2-methylimidazo[1,2-a]pyridin-6-yl}-2-methyl-N-(piperidin-4-yl)-1-benzofuran-7-carboxamide], for which the half-maximal activity concentration (AC50) in test [1] was 1000 to 10000 nM; in test [2] it was > 10000 nM.

On to `CCn1cc2c(N3CCNCC3)ccc(C(=O)Nc3cc(Cl)c4nc(C)cn4c3)c2n1` [Compound 284, N-{8-chloro-2-methylimidazo[1,2-a]pyridin-6-yl}-2-ethyl-4-(piperazin-1-yl)indazole-7-carboxamide], for which the half-maximal activity concentration (AC50) was 1000 to 10000 nM in test [1] and > 10000 nM in test [2].

For `Cc1cn2cc(NC(=O)c3ccc(C4CCNCC4)c4cn(C)nc34)cc(Cl)c2n1` [Compound 285, N-{8-chloro-2-methylimidazo[1,2-a]pyridin-6-yl}-2-methyl-4-(piperidin-4-yl) indazole-7-carboxamide], the half-maximal activity concentration (AC50) in test [1] and in test [2] was 100 to 1000 nM in each case.

Consider `Cc1cn2cc(NC(=O)c3ccc(N4CCNCC4)c4c[nH]nc34)cc(Cl)c2n1` [Compound 286, N-{8-chloro-2-methylimidazo[1,2-a]pyridin-6-yl}-4-(piperazin-1-yl)-2H-indazole-7-carboxamide], for which the concentration at half-maximal activity (AC50) in test [1] and in test [2] was > 10000 nM each time.

As a reminder, the IC50 is the concentration needed to halve the response being measured. As a reminder, the AC50 is the concentration giving half of the maximal activity seen. Low readings indicate activity at low concentration, high ones activity only at high concentration.
